target: CBP (Homo sapiens (Human), UniProt Q92793); assay: HTRF biochemical assay for CBP activity (TR-FRET, bromodomain); type: binding; conditions: geometric mean, 10-point 3-fold dilution 33 μM to 1.7 nM, read-out: BROMO IC50 TRF TB CBP (μM gmean)
Method: Example 1: HTRF Biochemical Assay for CBP Activity
The assay was performed in a final volume of 6 μL in assay buffer containing 50 mM Hepes (pH 7.5, (0.5M Hepes, pH 7.5 solution; Teknova H1575)), 0.5 mM GSH, 0.01% BGG (0.22 p M filtered, Sigma, G7516-25G), 0.005% BSA (0.22 μM filtered, EMD Millipore Corporation, 126575) and 0.01% Triton X-100 (Sigma, T9284-10L). Nanoliter quantities of 10-point, 3-fold serial dilution in DMSO were pre-dispensed into 1536 assay plates (Corning, #3724BC) for a final test concentration of 33 μM to 1.7 nM, top to lowest dose, respectively. 3 μL of 2×Protein and 3 μL of 2×Peptide Ligand were added to assay plates (pre-stamped with compound). Plates were incubated for varying times at room temperature prior to measuring the signal. TR-FRET (Time-Resolved Fluorescence Resonance Energy Transfer) was measured on the PHERAstar (BMG, equipped with HTRF optic module [337/520/490]) or on the Envision (PerkinElmer, equipped with the TRF Laser unit, TRF dual mirror D400/D505 and emission filters M520 and M495). Data were reported as percent inhibition compared with control wells based on the following equation: % inh=1−((TR-FRET ratio−AveLow)/(AveHigh−AveLow)) where TR-FRET ratio=(Fluorescence at 520 nm/Fluorescence at 490 nm)*10000), AveLow=average TR-FRET ratio of no enzyme control (n=32), and AveHigh=average TR-FRET ratio of DMSO control (n=32). IC50 values were determined by curve fitting of the standard 4 parameter logistic fitting algorithm included in the Activity Base software package: IDBS XE Designer Model205. Data is fitted using the Levenburg Marquardt algorithm. As set forth in Table 2 below, an IC50 value of greater than or equal to 0.001 μM and less than or equal to 0.01 μM is marked “++++”; a value greater than 0.01 μM and less than or equal to 0.1 μM is marked “+++”; a value greater than 0.1 μM and less than or equal to 1 μM is marked “++”; and a value greater than 1 μM and less than 1000 μM is marked “+.” Compounds that were not tested in a particular assay are marked “NT.”

CBP, sequence (Q92793 1085-1192): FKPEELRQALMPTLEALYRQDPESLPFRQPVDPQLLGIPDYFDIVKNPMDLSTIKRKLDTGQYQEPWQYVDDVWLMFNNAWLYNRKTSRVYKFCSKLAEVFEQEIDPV

Row | Molecule | IC50 [µM]
1 | COC(=O)N1CCc2ccc3c(nc([C@@H]4CCC[C@H](C(=O)O)C4)n3[C@@H](C)Cc3ccccc3)c2C1 (single isomer, unassigned) [Compound 203] | 0.01 to 0.1
2 | COC(=O)N1CCc2ccc3c(nc([C@H]4CCC[C@H](C(=O)O)C4)n3[C@H](C)Cc3ccccc3C)c2C1 (single isomer, unassigned) [Compound 163] | 0.001 to 0.01
3 | COC(=O)N1CCc2ccc3c(nc([C@H]4CCCOC4)n3C[C@H](C(=O)O)c3ccccc3)c2C1 [Compound 89] | 0.001 to 0.01
4 | COC(=O)N1CCc2ccc3c(nc([C@H]4CC[C@H](C(=O)O)CC4)n3[C@H](C)Cc3c(F)cccc3F)c2C1 [Compound 95] | 0.001 to 0.01
5 | COC(=O)N1CCc2ccc3c(nc([C@H]4CC[C@@H](S(N)(=O)=O)CC4)n3[C@H](C)Cc3ccccc3)c2C1 [Compound 310] | 0.1 to 1
6 | COC(=O)N1CCc2c(Cl)cc3c(nc(C4CCCCC4)n3C[C@@H](C(=O)O)c3ccccc3)c2C1 [Compound 56] | 0.001 to 0.01
7 | COC(=O)N1CCc2ccc3c(nc([C@H]4CC[C@H](C(=O)O)CC4)n3[C@H](C)Cc3ccccc3Cl)c2C1 [Compound 297] | 0.1 to 1
8 | COC(=O)N1CCc2ccc3c(nc([C@H]4CC[C@H](C(=O)O)CC4)n3[C@@H](C)Cc3ccccc3Cl)c2C1 [Compound 42] | 0.001 to 0.01
9 | COC(=O)N1CCc2ccc3c(nc(N4CC[C@H](C(=O)O)C4)n3[C@@H](C)Cc3ccccc3)c2C1 [Compound 222] | 0.01 to 0.1
10 | COC(=O)N1CCc2ccc3c(nc(C4CCCCC4)n3CCc3ccc(OC)c(C(=O)O)c3)c2C1 [Compound 242] | 0.01 to 0.1
11 | COC(=O)N1CCc2ccc3c(nc([C@H]4CC[C@](C)(C(=O)O)CC4)n3[C@@H](CO)Cc3ccccc3)c2C1 [Compound 270] | 0.01 to 0.1
12 | (3S)-4-[2-cyclohexyl-8-(methoxycarbonyl)-3H,6H,7H,8H,9H-imidazo[4,5-h]isoquinolin-3-yl]-3-(3-fluoro-5-methoxyphenyl)butanoic acid [Compound 10] | 0.001 to 0.01
13 | COC(=O)N1CCc2ccc3c(nc([C@H]4CC[C@H](C(=O)O)CC4)n3[C@H](C)C[C@H]3CCCCO3)c2C1 [Compound 179] | 0.01 to 0.1
14 | COC(=O)N1CCc2ccc3c(nc(C4CCCCC4)n3[C@@H](C)Cc3cccc(C(=O)O)c3)c2C1 [Compound 102] | 0.001 to 0.01
15 | COC(=O)N1CCc2ccc3c(nc([C@H]4CC[C@H](C(=O)O)CC4)n3[C@@H](C)Cc3ccccc3)c2C1 [Compound 72] | 0.001 to 0.01
16 | COC(=O)N1CCc2ccc3c(nc([C@@H]4CCC[C@@H](C(=O)O)C4)n3C[C@@H](C)c3ccc(F)c(F)c3)c2C1 (single isomer, unassigned) [Compound 148] | 0.001 to 0.01
17 | COC(=O)N1Cc2c(ccc3c2nc([C@H]2CC[C@H](C(=O)O)CC2)n3[C@H](C)Cc2ccc(F)c(F)c2)C[C@@H]1C [Compound 129] | 0.001 to 0.01
18 | COC(=O)N1CCc2ccc3c(nc(C4CCCCC4)n3C[C@H](CC(=O)O)c3ccccc3C)c2C1 [Compound 115] | 0.001 to 0.01
19 | COC(=O)N1CCc2ccc3c(nc([C@H]4CC[C@H](C(=O)O)CC4)n3[C@H](C)Cc3cccc(C)c3)c2C1 [Compound 334] | 0.1 to 1
20 | COC(=O)N1CCc2ccc3c(nc([C@H]4CC[C@H](C(=O)O)CC4)n3[C@@H](C)[C@H](O)c3ccccc3)c2C1 [Compound 268] | 0.01 to 0.1
21 | COC(=O)N1CCc2ccc3c(nc(C4CCCCC4)n3C[C@@H](CC(=O)O)c3ccc(F)c(F)c3)c2C1 [Compound 4, (3S)-4-[2-cyclohexyl-8-(methoxycarbonyl)-3H,6H,7H,8H,9H-imidazo[4,5-h]isoquinolin-3-yl]-3-(3,4-difluorophenyl)butanoic acid] | 0.001 to 0.01
22 | COC(=O)N1CCc2c(C(=O)O)cc3c(nc(C4CCCCC4)n3[C@@H](C)Cc3ccccc3)c2C1 [Compound 67] | 0.001 to 0.01
23 | COC(=O)N1CCc2ccc3c(nc([C@H]4CC[C@H](S(=O)(=O)NC(C)=O)CC4)n3[C@H](C)Cc3ccccc3)c2C1 [Compound 316] | 0.1 to 1
24 | COC(=O)N1CCc2ccc3c(nc([C@H]4CC[C@@](C)(C(=O)O)CC4)n3[C@@H](CO)Cc3ccccc3)c2C1 [Compound 341] | 0.1 to 1
25 | COC(=O)N1CCc2ccc3c(nc(N4CCC(C(=O)O)CC4)n3[C@@H](C)Cc3ccccc3C)c2C1 [Compound 63] | 0.001 to 0.01
26 | COC(=O)N1CCc2ccc3c(nc(N4CCCCC4)n3C[C@@H](CC(=O)O)c3ccc(F)c(F)c3)c2C1 [Compound 25] | 0.001 to 0.01

Row | Molecule | IC50 [µM]
27 | COC(=O)N1CCc2ccc3c(nc([C@H]4CCC[C@H](C(=O)O)C4)n3C[C@H]3CC[C@H](OC)CC3)c2C1 [Compound 255] | 0.01 to 0.1
28 | COC(=O)N1CCc2ccc3c(nc([C@H]4CC[C@H](C(=O)O)CC4)n3[C@@H](C)C[C@@H]3CCCOC3)c2C1 [Compound 183] | 0.01 to 0.1
29 | COC(=O)N1CCc2ccc3c(nc(-c4cccc(C(C)(C)C(=O)O)c4)n3[C@H](C)Cn3cc(Cl)cn3)c2C1 [Compound 320] | 0.1 to 1
30 | COC(=O)N1CCc2ccc3c(nc([C@H]4CC[C@H](C(=O)O)CC4)n3[C@H](C)Cc3ccc(F)c(F)c3)c2C1 [Compound 40] | 0.001 to 0.01
31 | COC(=O)N1CCc2ccc3c(nc([C@@H]4CCCOC4)n3C[C@H](C(=O)O)c3ccccc3)c2C1 [Compound 257] | 0.01 to 0.1
32 | COC(=O)N1CCc2ccc3c(nc(C4CCCCC4)n3[C@@H](CO)Cc3cccc(C(=O)O)c3)c2C1 [Compound 152] | 0.001 to 0.01
33 | COC(=O)N1CCc2ccc3c(nc(C4CCN(C(C)=O)CC4)n3[C@@H](C)Cc3ccccc3)c2C1 [Compound 323] | 0.1 to 1
34 | COC(=O)N1CCc2ccc3c(nc(-c4ccc(C(C)(C)C(=O)O)cc4)n3[C@H](C)Cn3cc(Cl)cn3)c2C1 [Compound 327] | 0.1 to 1
35 | COC(=O)N1CCc2ccc3c(nc([C@@H]4CCC[C@@H](C(=O)O)C4)n3C(C)Cc3ccccc3)c2C1 (stereo in doubt) [Compound 99, (1R,3R)-3-[8-(methoxycarbonyl)-3-[(2S)-1-phenylpropan-2-yl]-3H,6H,7H,8H,9H-imidazo[4,5-h]isoquinolin-2-yl]cyclohexane-1-carboxylic acid] | 0.001 to 0.01
36 | COC(=O)N1CCc2ccc3c(nc(C4CCN(C(C)=O)CC4)n3[C@@H](C)Cc3cccnc3)c2C1 [Compound 207] | 0.01 to 0.1
37 | COC(=O)N1CCc2ccc3c(nc([C@H]4CC[C@H](C(=O)O)CC4)n3[C@@H](C)Cc3c(F)cccc3F)c2C1 [Compound 289] | 0.01 to 0.1
38 | COC(=O)N1CCc2ccc3c(nc(N4CCC[C@H](C(=O)O)C4)n3C[C@H](C)c3ccccc3)c2C1 [Compound 306] | 0.1 to 1
39 | COC(=O)N1CCc2ccc3c(nc([C@H]4CC[C@H](C(=O)O)CC4)n3[C@H](C)CC3CCCCC3)c2C1 [Compound 114] | 0.001 to 0.01
40 | COC(=O)N1CCc2ccc3c(nc([C@H]4CCC[C@H](C(=O)O)C4)n3[C@H](C)Cc3ccccc3Cl)c2C1 (single isomer, unassigned) [Compound 176] | 0.01 to 0.1
41 | COC(=O)N1CCc2ccc3c(nc([C@H]4CC[C@H](C(=O)O)CC4)n3[C@@H](CO)Cc3ccc(F)c(F)c3)c2C1 [Compound 74] | 0.001 to 0.01
42 | COC(=O)N1CCc2ccc3c(nc(C4CCCCC4)n3[C@H](C)Cc3cccc(C(=O)O)c3)c2C1 [Compound 294] | 0.1 to 1
43 | COC(=O)N1CCc2ccc3c(nc([C@H]4CC[C@H](C(=O)O)CC4)n3C[C@H](OC)c3ccccc3)c2C1 [Compound 191] | 0.01 to 0.1
44 | COC(=O)N1CCc2ccc3c(nc(C4CCCCC4)n3CCc3ccccc3)c2C1 [Compound 170] | 0.001 to 0.01
45 | COC(=O)N1CCc2ccc3c(nc(C4CCCCC4)n3[C@@H](C)C[C@H]3CC[C@H](C(=O)O)CC3)c2C1 [Compound 48] | 0.001 to 0.01
46 | COC(=O)N1CCc2ccc3c(nc(N4CCC(C)(C(=O)O)CC4)n3[C@@H](C)Cc3ccccc3)c2C1 [Compound 75] | 0.001 to 0.01
47 | COC(=O)N1CCc2ccc3c(nc(N4CCCCC4)n3C[C@@H](CC(=O)O)c3ccccc3)c2C1 [Compound 47] | 0.001 to 0.01
48 | COC(=O)N1CCc2ccc3c(nc(C4CCCCC4)n3C[C@H](C(=O)O)c3cc(F)c(Cl)cc3OC)c2C1 (single isomer, unassigned) [Compound 229] | 0.01 to 0.1
49 | COC(=O)N1CCc2ccc3c(nc([C@H]4CC[C@](C)(C(=O)O)CC4)n3[C@H](C)Cc3ccccc3)c2C1 [Compound 333] | 0.1 to 1
50 | COC(=O)N1CCc2ccc3c(nc([C@H]4CC[C@H](C(=O)O)CC4)n3[C@H](C)C[C@H]3CC[C@H](OC(F)(F)F)CC3)c2C1 [Compound 317] | 0.1 to 1
51 | COC(=O)N1CCc2ccc3c(nc(C4CCCCC4)n3C[C@@H](C(=O)NS(C)(=O)=O)c3ccccc3)c2C1 (single isomer, unassigned) [Compound 138] | 0.001 to 0.01

Source: patent publication US20250188079A1, “INHIBITING CYCLIC AMP-RESPONSIVE ELEMENT-BINDING PROTEIN (CREB)” (Forma Therapeutics, Inc., priority 2019, published 2025)
